In patent US11596622B2, “Mazindol treatment for heroin dependence and substance use disorder” (NLS Pharmaceutics AG, priority 2017, dated 2023):

Experiments:
[1] = biological target: T1, 5-HT1A(h) (Homo sapiens, UniProt P08908); experiment: Radioligand binding, 5-HT1A (Eurofins CEREP); details: 1.0 × 10^−05 M; agonist radioligand; read-out: percent inhibition of the binding of a radioactively labeled ligand
T1 construct: Eurofins CEREP
T1 sequence (P08908 1-422): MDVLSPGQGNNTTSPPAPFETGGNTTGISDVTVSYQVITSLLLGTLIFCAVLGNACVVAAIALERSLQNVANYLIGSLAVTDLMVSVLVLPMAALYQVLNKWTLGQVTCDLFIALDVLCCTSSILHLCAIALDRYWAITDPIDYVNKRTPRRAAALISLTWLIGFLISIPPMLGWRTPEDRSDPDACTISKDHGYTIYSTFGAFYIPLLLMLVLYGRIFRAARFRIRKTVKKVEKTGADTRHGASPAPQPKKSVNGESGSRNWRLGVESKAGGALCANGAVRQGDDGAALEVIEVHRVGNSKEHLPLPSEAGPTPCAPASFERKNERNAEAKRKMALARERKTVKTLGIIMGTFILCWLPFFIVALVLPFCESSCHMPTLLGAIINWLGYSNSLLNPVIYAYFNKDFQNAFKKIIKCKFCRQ
Description: Table A discloses mazindol and Met tested at […] and the compound binding calculated as a percent inhibition of the binding of a radioactively labeled ligand specific for each target (Eurofins CEREP, France).
An inhibition or stimulation of more than 50% is considered a significant effect of the test compounds. Fifty percent is a common cut-off for further investigation (i.e. determination of IC50 or EC50 values from concentration-response curves).
The results are expressed as a percent of control specific binding obtained in the presence of the test compounds:
[formula] and as a percent inhibition of control specific binding obtained in the presence of the test compounds: […]

[2] = system: C57BL/6J mice; experiment: Effect of treatment on the conditioned place preference induced by heroin; type: in vivo; details: for Distance travelled in the drug-paired compartment / Distance travelled in the two compartments (Drug + Vehicle) / Distance travelled in the vehicle-paired compartment / Distance travelled, drug-paired minus vehicle-paired compartment / Time spent in the drug-paired compartment / Time spent in the vehicle-paired compartment / Time spent, drug-paired minus vehicle-paired compartment: mean
Description: Conditioned place preference (CPP) is a widely used procedure for studying the potential addictive effect of drugs. CPP is based upon the tendency of rodents to approach a stimulus that has previously been paired with an incentive state induced by a drug. A drug that induces a CPP may be suspected to present reinforcing effects that could lead to addiction. Numerous addictive drugs, such as opiate agonists or stimulants induce a CPP and a behavioral sensitization.
The effect of mazindol on place preference was examined in C57BL/6J mice using a method similar to the one used by Schlussman et al. (9).
The third experiments consisted in examining the effects of mazindol and D-amphetamine (at doses chosen from results of the first part of the study) on the place preference induced by heroin at a dose chosen from results of the second experiment, which was 1.25 mg/kg. Mazindol (0.125, 0.25 and 0.5 mg/kg) and D-amphetamine (0.5 mg/kg) were tested.
Therefore, it was decided to perform an additional experiment to examine the effects on place preference induced by heroin of mazindol at 1 and 2 mg/kg and of D-amphetamine at 1 mg/kg.
(§1) Following the habituation session (on day 1), animals (N=72) were pseudo-randomly assigned to two groups, a Control group (N=12) and a Heroin group (N=60), in a way that there was no significant difference between the two groups for the total distance travelled in the apparatus and for the percentage of time spent and the percentage distance travelled in the grey compartment and in the striped compartment.
Animals received the following treatments immediately before drug sessions: • Control group: vehicle • Heroin group: heroin (1.25 mg/kg)
(§2) Following the last conditioning session, the Heroin group was pseudo-randomly divided into 5 groups (N=12/group) in a way that there was no significant difference between groups for the total distance travelled in the apparatus and for the percentage of time spent and the percentage distance travelled in the grey compartment and in the striped compartment in habituation session, for the distance travelled in the drug-paired and in the vehicle-paired compartments in conditioning sessions and for the proportion of striped drug-paired compartments.
Animals received the following treatments before preference session: • Control group: vehicle of mazindol, i.p. 60 min before testing. • Hero group: vehicle of mazindol, i.p. 60 min before testing. • Hero-A 0.5 group: D-amphetamine (0.5 mg/kg), i.p. 30 min before testing. • Hero-Mz 0.125 group: mazindol (0.125 mg/kg), i.p. 60 min before testing. • Hero-Mz 0.25 group: mazindol (0.25 mg/kg), i.p. 60 min before testing. • Hero-Mz 0.5 group: mazindol (0.5 mg/kg), i.p. 60 min before testing.
as §1, with “three” for “two”, “(N=12),” for “(N=12) and”, “(N=48) and a Mazindol group (N=12),” for “(N=60),”
Animals received the following treatments before drug sessions: • Control group: vehicle, i.p. immediately before session. • Heroin group: heroin (1.25 mg/kg), i.p. immediately before session. • MAZ 2 group: mazindol (2 mg/kg), i.p. 60 min before session.
as §2, with “into 4” for “into 5”, “there is” for “there was”, “compartments. […]” for “compartments.”

[3] = Hero-Mz 0.125: heroin 1.25 mg/kg conditioning, mazindol 0.125 mg/kg i.p. 60 min before preference session
[4] = Hero-Mz 0.25: heroin 1.25 mg/kg conditioning, mazindol 0.25 mg/kg i.p. 60 min before preference session
[5] = Hero-Mz 0.5: heroin 1.25 mg/kg conditioning, mazindol 0.5 mg/kg i.p. 60 min before preference session
[6] = Hero-Mz 1: heroin 1.25 mg/kg conditioning, mazindol 1 mg/kg i.p. 60 min before preference session
[7] = Hero-Mz 2: heroin 1.25 mg/kg conditioning, mazindol 2 mg/kg i.p. 60 min before preference session

For `OC1(c2ccc(Cl)cc2)c2ccccc2C2=NCCN21` (centres unmarked) [Mazindol, 5-(4-chlorophenyl)-2,5-dihydro-3 H-imadazo[2,1-a]isoindol-5-ol], the inhibition at 10 µM [1] was 89.5%, the “Distance travelled in the drug-paired compartment” value [2, 3] was 5623.8 cm and the “Distance travelled in the two compartments (Drug + Vehicle)” value (shortened to “Distance travelled … (Drug + Vehicle)”) [2, 3] was 9800.4 cm. For the same compound, the “Distance travelled in the vehicle-paired compartment” value [2, 3] was 4176.5 cm, the “Distance travelled, drug-paired minus vehicle-paired compartment” value [2, 3] was 1447.3 cm and the “Time spent in the drug-paired compartment” value [2, 3] was 1105.7 s. For the same compound, the “Time spent in the vehicle-paired compartment” value [2, 3] was 694.3 s, the “Time spent, drug-paired minus vehicle-paired compartment” value [2, 3] was 411.3 s and the “Distance travelled in the drug-paired compartment” value [2, 4] was 5092.1 cm. For the same compound, the “Distance travelled … (Drug + Vehicle)” value [2, 4] was 9390.5 cm, the “Distance travelled in the vehicle-paired compartment” value [2, 4] was 4298.4 cm and the “Distance travelled, drug-paired minus vehicle-paired compartment” value [2, 4] was 793.8 cm. The “Time spent in the drug-paired compartment” value [2, 4] was 933.9 s, the “Time spent in the vehicle-paired compartment” value [2, 4] was 866.1 s and the “Time spent, drug-paired minus vehicle-paired compartment” value [2, 4] was 67.8 s. For the same compound, the “Distance travelled in the drug-paired compartment” value [2, 5] was 4411.7 cm, the “Distance travelled … (Drug + Vehicle)” value [2, 5] was 8164.5 cm and the “Distance travelled in the vehicle-paired compartment” value [2, 5] was 3752.8 cm. For the same compound, the “Distance travelled, drug-paired minus vehicle-paired compartment” value [2, 5] was 659.0 cm, the “Time spent in the drug-paired compartment” value [2, 5] was 965.1 s and the “Time spent in the vehicle-paired compartment” value [2, 5] was 834.9 s. For the same compound, the “Time spent, drug-paired minus vehicle-paired compartment” value [2, 5] was 130.1 s, the “Distance travelled in the drug-paired compartment” value [2, 6] was 5464.5 cm and the “Distance travelled … (Drug + Vehicle)” value [2, 6] was 9746.4 cm. For the same compound, the “Distance travelled in the vehicle-paired compartment” value [2, 6] was 4281.9 cm, the “Distance travelled, drug-paired minus vehicle-paired compartment” value [2, 6] was 1182.6 cm and the “Time spent in the drug-paired compartment” value [2, 6] was 1086.0 s. For the same compound, the “Time spent in the vehicle-paired compartment” value [2, 6] was 714.0 s, the “Time spent, drug-paired minus vehicle-paired compartment” value [2, 6] was 372.0 s and the “Distance travelled in the drug-paired compartment” value [2, 7] was 7038.9 cm. For the same compound, the “Distance travelled … (Drug + Vehicle)” value [2, 7] was 12086.8 cm, the “Distance travelled in the vehicle-paired compartment” value [2, 7] was 5047.9 cm and the “Distance travelled, drug-paired minus vehicle-paired compartment” value [2, 7] was 1990.9 cm. For the same compound, the “Time spent in the drug-paired compartment” value [2, 7] was 1089.7 s, the “Time spent in the vehicle-paired compartment” value [2, 7] was 710.3 s and the “Time spent, drug-paired minus vehicle-paired compartment” value [2, 7] was 379.3 s. The “effect on the heroin-induced increases of distance travelled and of time spent in the drug-paired compartment” value ([2]; mazindol 0.125 mg) was “had no significant effect”, the “effect on the heroin-induced increase of time spent in the drug-paired compartment” value ([2]; mazindol 0.25 mg/kg) was “Tended to reduce” and the “effect on the heroin-induced increase of the difference of distance travelled in the drug-paired vs. vehicle-paired compartment” value ([2]; mazindol 0.25 mg/kg, effect partial) was “Significantly reduced”. The “effect on the heroin-induced increase of the difference of distance travelled in the drug-paired vs. vehicle-paired compartment” value ([2]; mazindol 0.5 mg/kg) was “Significantly antagonized”, the “effect on the heroin-induced increase of time spent in the drug-paired compartment” value ([2]; mazindol 0.5 mg/kg) was “Tended to reduce” and the “effect on the heroin-induced increase of the difference of distance travelled in the drug-paired vs. vehicle-paired compartment” value ([2]; mazindol 1 mg/kg) was “Did not significantly reduce”. The “effect on the heroin-induced increase of time spent in the drug-paired compartment” value ([2]; mazindol 1 mg/kg) was “Did not significantly modify”, the “effect on the heroin-induced increases of distance travelled and of time spent in the drug-paired compartment” value ([2]; mazindol 2 mg) was “had no significant effect” and the “effect on the place preference induced by heroin” value ([2]; mazindol 0.125, 1 and 2 mg/kg i.p. before preference session) was “did not induce effects suggesting a decrease of the place preference induced by heroin”. For the same compound, the “locomotor activity (total distance travelled, FIG. 3)” value ([2]; mazindol 0.125-2 mg/kg i.p. before preference session) was “decreased locomotor activity at all doses tested except 2 mg/kg” and the “effect on the place preference induced by heroin” value ([2]; mazindol 0.25, 0.5 mg/kg i.p. before preference session) was “decreased the place preference induced by heroin”.
